Measurements: US20080280879A1, “SUBSTITUTED HETEROCYCLIC DERIVATIVES AND THEIR PHARMACEUTICAL USE AND COMPOSITIONS” (priority 2007, published 2008)
≈ marks a conversion by molar mass, not a printed value.

How the values were obtained:
Assay type in all cases: cell-based, Staphylococcus aureus
Staph aureus 1095 MRSA = assay: MIC, microtiter broth dilution (CLSI M7-A7), Assay 1, Table 12 column A, no serum; details: Assay 1, no serum; for MIC: Staphylococcus aureus, MRSA
In short: (§1)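 CLSI microdilution (M7-A7; M100-S16 interpretation); DMSO stocks at 10 mg/ml; endpoint = no macroscopically visible growth; MIC μg/ml, geometric mean if run more than once.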

Staph aureus 1146 [1] = assay: MIC, microtiter broth dilution (CLSI M7-A7), Assay 1, Table 12 column B, no serum; details: for MIC: Staphylococcus aureus, 1146, Staph aureus 1146, Assay 1, no serum; for MIC, column B: Staph aureus 1146, Assay 1, no serum
In short: as §1

Staph aureus 1146 [2] = assay: MIC in Mueller-Hinton Broth with 50% pooled inactivated human serum, Assay 1, Table 12; details: for MIC: Staphylococcus aureus, 1146, Staph aureus 1146, Assay 1, 50% human serum, read-out: MIC, column C; for MIC, column C: Staph aureus 1146, Assay 1, 50% human serum
In short: as §1

Staph aureus 2811 = assay: MIC, microtiter broth dilution (CLSI M7-A7), Assay 1, Table 12 column D, no serum; details: for MIC: Staphylococcus aureus, 2811, Staph aureus 2811, Assay 1, no serum; for MIC, column D: Staph aureus 2811, Assay 1, no serum
In short: as §1

Staph aureus 2812 = assay: MIC, microtiter broth dilution (CLSI M7-A7), Assay 1, Table 12 column E, no serum; details: for MIC: Staphylococcus aureus, 2812, Staph aureus 2812, Assay 1, no serum; for MIC, column E: Staph aureus 2812, Assay 1, no serum
In short: as §1

SMILES | MIC (Staph aureus 1095 MRSA) | MIC (Staph aureus 1146 [1]) | MIC (Staph aureus 1146 [2]) | MIC (Staph aureus 2811) | MIC (Staph aureus 2812) | MIC, column A (Staph aureus 1095 MRSA) | MIC, column B (Staph aureus 1146 [1]) | MIC, column C (Staph aureus 1146 [2]) | MIC, column D (Staph aureus 2811) | MIC, column E (Staph aureus 2812)
COc1ccc2nccc([C@@H](O)CC[C@@H]3CCN(C4CC(c5ccc(Br)cc5F)C4)C[C@@H]3C(=O)O)c2c1 (stereo partly drawn) [Example 196, (3R,4R)-1-[3-(4-bromo-2-fluorophenyl)cyclobutyl]-4-[(3S)-3-hydroxy-3-(6-methoxyquinolin-4-yl)propyl] piperidine-3-carboxylic acid] | 8 µg/mL (≈ 14 µM) | 1 µg/mL (≈ 1.75 µM) | 64 µg/mL (≈ 112 µM) | 1 µg/mL (≈ 1.75 µM) | 2 µg/mL (≈ 3.5 µM) |  |  |  |  | 
COc1ccc2nccc([C@@H](O)CC[C@@H]3CCN(C4CC(c5ccc(F)c(F)c5F)C4)C[C@@H]3C(=O)O)c2c1 (stereo partly drawn) [Example 197, (3R,4R)-4-[(3S)-3-hydroxy-3-(6-methoxyquinolin-4-yl)propyl]-1-[3-(2,3,4-trifluorophenyl)cyclobutyl] piperidine-3-carboxylic acid] | 0.5 µg/mL (≈ 0.946 µM) | < 0.0625 µg/mL | 4 µg/mL (≈ 7.57 µM) | < 0.0625 µg/mL | < 0.0625 µg/mL |  |  |  |  | 
COc1ccc2ncc(Cl)c(CCCC3(C(=O)O)CCN(C[C@@H]4C[C@H]4c4cc(F)ccc4F)C3)c2c1 (stereo partly drawn) [Example 198, 3-[3-(3-chloro-6-methoxyquinolin-4-yl)propyl]-1-{[(1R,2R)-2-(2,5-difluorophenyl)cyclopropyl]methyl} pyrrolidine-3-carboxylic acid] | 0.125 µg/mL (≈ 0.243 µM) | < 0.0625 µg/mL | > 64 µg/mL | < 0.0625 µg/mL | < 0.0625 µg/mL |  |  |  |  | 
COc1ccc2ncc(Cl)c(CCCC3(C(=O)O)CCN(C4CCC(c5cc(F)ccc5F)C4)C3)c2c1 (stereo not shown) [Example 199, 3-[3-(3-chloro-6-methoxyquinolin-4-yl)propyl]-1-[3-(2,5-difluorophenyl)cyclopentyl]pyrrolidine-3-carboxylic acid] | 0.125 µg/mL (≈ 0.236 µM) | < 0.0625 µg/mL | > 64 µg/mL | < 0.0625 µg/mL | < 0.0625 µg/mL |  |  |  |  | 
COc1ccc2nccc([C@@H](O)CC[C@@H]3CCN(C4CC(c5c(F)cccc5F)C4(C)C)C[C@@H]3C(=O)O)c2c1 (stereo partly drawn) [Example 200, (3R,4R)-1-[3-(2,6-difluorophenyl)-2,2-dimethylcyclobutyl]-4-[(3S)-3-hydroxy-3-(6-methoxyquinolin-4-yl)propyl]piperidine-3-carboxylic acid] | 32 µg/mL (≈ 59.4 µM) | 8 µg/mL (≈ 14.9 µM) | > 64 µg/mL | 8 µg/mL (≈ 14.9 µM) | 8 µg/mL (≈ 14.9 µM) |  |  |  |  | 
O=C(O)[C@H]1CN(C2CC(c3c(F)cccc3F)C2)CC[C@H]1CCC(O)c1c(F)cnc2ccc(O)nc12 (stereo partly drawn) [Example 201, (3R,4R)-1-[3-(2,6-difluorophenyl)cyclobutyl]-4-[3-(3-fluoro-6-hydroxy-1,5-naphthyridin-4-yl)-3-hydroxypropyl]piperidine-3-carboxylic acid] | 16 µg/mL (≈ 31 µM) | 2 µg/mL (≈ 3.88 µM) | 8 µg/mL (≈ 15.5 µM) | 2 µg/mL (≈ 3.88 µM) | 4 µg/mL (≈ 7.76 µM) |  |  |  |  | 
COc1ccc2nccc(C(O)CC[C@@H]3CCN(C4CC(Cc5cc(F)ccc5F)C4)C[C@@H]3C(=O)O)c2c1 (stereo partly drawn) [Example 202, (3R,4R)-1-[3-(2,5-difluorobenzyl)cyclobutyl]-4-[3-hydroxy-3-(6-methoxyquinolin-4-yl)propyl]piperidine-3-carboxylic acid] | 8 µg/mL (≈ 15.2 µM) | 2 µg/mL (≈ 3.81 µM) | 64 µg/mL (≈ 122 µM) | 2 µg/mL (≈ 3.81 µM) | 4 µg/mL (≈ 7.62 µM) |  |  |  |  | 
COc1ccc2ncc(Cl)c(C(O)CC[C@@H]3CCN(C4CC(c5cc(F)ccc5F)C4)C[C@@H]3C(=O)O)c2c1 (stereo partly drawn) [Example 203, (3R,4R)-4-[3-(3-chloro-6-methoxyquinolin-4-yl)-3-hydroxypropyl]-1-[3-(2,5-difluorophenyl)cyclobutyl]piperidine-3-carboxylic acid] |  |  |  |  |  | 0.250 µg/mL (≈ 0.459 µM) | 0.125 µg/mL (≈ 0.229 µM) | 16.0 µg/mL (≈ 29.4 µM) | 0.125 µg/mL (≈ 0.229 µM) | 0.125 µg/mL (≈ 0.229 µM)
COc1ccc2ncc(Cl)c(C(O)CC[C@@H]3CCN(C4CC(c5cc(F)ccc5F)C4)C[C@@H]3C(=O)O)c2c1 (stereo partly drawn) [Example 204, (3R,4R)-4-[3-(3-chloro-6-methoxyquinolin-4-yl)-3-hydroxypropyl]-1-[3-(2,5-difluorophenyl)cyclobutyl]piperidine-3-carboxylic acid] |  |  |  |  |  | 0.250 µg/mL (≈ 0.459 µM) | 0.125 µg/mL (≈ 0.229 µM) | 4.00 µg/mL (≈ 7.34 µM) | 0.125 µg/mL (≈ 0.229 µM) | 0.250 µg/mL (≈ 0.459 µM)
COc1ccc2ncc(F)c(C(O)CC[C@@H]3CCN(C4CC(c5cc(F)ccc5F)C4)C[C@@H]3C(=O)O)c2n1 (stereo partly drawn) [Example 205, (3R,4R)-1-[3-(2,5-difluorophenyl)cyclobutyl]-4-[3-(3-fluoro-6-methoxy-1,5-naphthyridin-4-yl)-3-hydroxypropyl]piperidine-3-carboxylic acid] | < 0.0625 µg/mL | < 0.0625 µg/mL | 2 µg/mL (≈ 3.78 µM) | < 0.0625 µg/mL | < 0.0625 µg/mL |  |  |  |  | 
COc1ccc2ncc(Cl)c(CCCC3(C(=O)O)CCN(C4CC(c5cc(F)ccc5F)C4)C3)c2c1 (stereo not shown) [Example 207, 3-[3-(3-chloro-6-methoxyquinolin-4-yl)propyl]-1-[3-(2,5-difluorophenyl)cyclobutyl] pyrrolidine-3-carboxylic acid] | < 0.0625 µg/mL | < 0.0625 µg/mL | 64 µg/mL (≈ 124 µM) | < 0.0625 µg/mL | < 0.0625 µg/mL |  |  |  |  | 
COc1ccc2nccc([C@@H](O)CC[C@@H]3CCN(C4CC(c5cccc(OC)c5F)C4)C[C@@H]3C(=O)O)c2c1 (stereo partly drawn) [Example 208, (3R,4R)-1-[3-(2-fluoro-3-methoxyphenyl)cyclobutyl]-4-[(3S)-3-hydroxy-3-(6-methoxyquinolin-4-yl)propyl]piperidine-3-carboxylic acid] | 64 µg/mL (≈ 122 µM) | 32 µg/mL (≈ 61.2 µM) | > 64 µg/mL | 32 µg/mL (≈ 61.2 µM) | 64 µg/mL (≈ 122 µM) |  |  |  |  | 
COc1ccc2ncc(Cl)c(C(O)CC[C@@H]3CCN(C4CC(c5cc(F)ccc5F)C4)C[C@@H]3C(=O)O)c2c1 (stereo partly drawn) [Example 209, (3R,4R)-4-[3-(3-chloro-6-methoxyquinolin-4-yl)-3-hydroxypropyl]-1-[3-(2,5-difluorophenyl)cyclobutyl]piperidine-3-carboxylic acid] |  |  |  |  |  | <0.0625 µg/mL | <0.0625 µg/mL | 1.00 µg/mL (≈ 1.83 µM) | <0.0625 µg/mL | <0.0625 µg/mL
COc1ccc2ncc(Cl)c(C(O)CC[C@@H]3CCN(C4CC(c5cc(F)ccc5F)C4)C[C@@H]3C(=O)O)c2c1 (stereo partly drawn) [Example 210, (3R,4R)-4-[3-(3-chloro-6-methoxyquinolin-4-yl)-3-hydroxypropyl]-1-[3-(2,5-difluorophenyl)cyclobutyl]piperidine-3-carboxylic acid] |  |  |  |  |  | <0.0625 µg/mL | <0.0625 µg/mL | 16.0 µg/mL (≈ 29.4 µM) | <0.0625 µg/mL | <0.0625 µg/mL
COc1ccc2ncc(Cl)c(C(O)CC[C@@H]3CCN(C4CC(c5ccccc5)C4)C[C@@H]3C(=O)O)c2c1 (stereo partly drawn) [Example 211, (3R,4R)-4-[3-(3-chloro-6-methoxyquinolin-4-yl)-3-hydroxypropyl]-1-(3-phenylcyclobutyl)piperidine-3-carboxylic acid] |  |  |  |  |  | <0.0625 µg/mL | <0.0625 µg/mL | 0.250 µg/mL (≈ 0.491 µM) | <0.0625 µg/mL | <0.0625 µg/mL
COc1ccc2ncc(Cl)c(C(O)CC[C@@H]3CCN(C4CC(c5ccccc5)C4)C[C@@H]3C(=O)O)c2c1 (stereo partly drawn) [Example 212, (3R,4R)-4-[3-(3-chloro-6-methoxyquinolin-4-yl)-3-hydroxypropyl]-1-(3-phenylcyclobutyl)piperidine-3-carboxylic acid] |  |  |  |  |  | <0.0625 µg/mL | <0.0625 µg/mL | 2.00 µg/mL (≈ 3.93 µM) | <0.0625 µg/mL | <0.0625 µg/mL
COc1ccc2ncc(Cl)c(C(O)CC[C@@H]3CCN(C4CC(c5c(F)cccc5F)C4)C[C@@H]3C(=O)O)c2c1 (stereo partly drawn) [Example 213, (3R,4R)-4-[3-(3-chloro-6-methoxyquinolin-4-yl)-3-hydroxypropyl]-1-[3-(2,6-difluorophenyl)cyclobutyl]piperidine-3-carboxylic acid] |  |  |  |  |  | <0.0625 µg/mL | <0.0625 µg/mL | 0.500 µg/mL (≈ 0.917 µM) | <0.0625 µg/mL | <0.0625 µg/mL
